Results published in ChEMBL document CHEMBL5042543, “Bridged Piperidine Analogues of a High Affinity Naphthalene-Based P2Y14R Antagonist” (J Med Chem, 2022).
In brackets after ≈: the same amount, converted by molar mass.

Columns and labels:
[1] = target: T1, P2Y purinoceptor 14 (Homo sapiens, UniProt Q15391); assay: cell-based
T1 sequence (Q15391 whole entry): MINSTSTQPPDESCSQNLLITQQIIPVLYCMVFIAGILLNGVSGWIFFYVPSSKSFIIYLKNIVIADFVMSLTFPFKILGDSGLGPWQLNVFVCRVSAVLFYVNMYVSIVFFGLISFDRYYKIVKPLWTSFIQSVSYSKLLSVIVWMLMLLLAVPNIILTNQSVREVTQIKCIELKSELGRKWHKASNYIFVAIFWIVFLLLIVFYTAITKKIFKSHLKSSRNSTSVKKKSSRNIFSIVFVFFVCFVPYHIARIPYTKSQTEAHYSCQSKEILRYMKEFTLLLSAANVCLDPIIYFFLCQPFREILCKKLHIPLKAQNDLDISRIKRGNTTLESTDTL
Description: Inhibition of fluorescent antagonist binding to human P2Y14R expressed in CHO cells preincubated for 30 mins followed by 6-amino-9-(2-carboxy-4-((6-(4-(4-(4-(4-(3-carboxy 6-(4-(trifluoromethyl)phenyl)naphthalen-1-yl)phenyl)piperidin-1-yl)butyl)-1H-1,2,3-triazol-1-yl)hexyl)carbamoyl)phenyl)-3-iminio-5-sulfo-3H-xanthene-4-sulfonate addition and measured after 30 mins by BD FACSCalibur flow cytometry analysis

[2] = target: T2, liver carboxylesterase (Sus scrofa, UniProt Q29550); assay: Stability of the compound in aqueous medium at pH 7.4 assessed as half life in presence of porcine liver esterase; assay type: physicochemical; conditions: pig
T2 sequence (Q29550 whole entry): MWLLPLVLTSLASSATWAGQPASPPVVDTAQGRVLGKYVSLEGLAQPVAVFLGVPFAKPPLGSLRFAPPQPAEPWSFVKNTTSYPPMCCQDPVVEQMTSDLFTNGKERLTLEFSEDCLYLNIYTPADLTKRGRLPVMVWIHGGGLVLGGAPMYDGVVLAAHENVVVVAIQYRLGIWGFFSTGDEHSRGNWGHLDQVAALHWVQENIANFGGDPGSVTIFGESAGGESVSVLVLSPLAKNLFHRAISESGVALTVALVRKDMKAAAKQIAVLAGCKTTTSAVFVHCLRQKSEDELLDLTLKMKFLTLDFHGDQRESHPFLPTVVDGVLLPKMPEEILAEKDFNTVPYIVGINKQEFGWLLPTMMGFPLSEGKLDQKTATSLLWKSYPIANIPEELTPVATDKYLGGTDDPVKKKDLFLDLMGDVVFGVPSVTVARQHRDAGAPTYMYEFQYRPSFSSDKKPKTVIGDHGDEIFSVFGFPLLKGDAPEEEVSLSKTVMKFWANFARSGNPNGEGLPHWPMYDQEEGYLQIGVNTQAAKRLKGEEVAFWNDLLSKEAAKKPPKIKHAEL

[3] = Aqueous solubility of the compound at pH 4
[4] = Distribution coefficient, logD of compound at pH 7.4 by HPLC analysis; assay type: physicochemical; conditions: octanol/water, read-out: logD
[5] = Aqueous solubility of the compound at pH 7.4; conditions: buffer
[6] = target: Sigma non-opioid intracellular receptor 1 (Homo sapiens, UniProt Q99720); assay: Inhibition of sigma 1 receptor (unknown origin) assessed as binding constant
[7] = target: Translocator protein (Homo sapiens, UniProt P30536); assay: Inhibition of TSPO receptor (unknown origin) assessed as binding constant
[8] = target: T3, P2Y purinoceptor 14 (Mus musculus, UniProt Q9ESG6); assay: Inhibition of fluorescent antagonist binding to mouse P2Y14R expressed in HEK293 cells preincubated for 30 mins followed by addition of 6-amino-9-(2-carboxy-4-((6-(4-(4-(4-(4-(3-carboxy-6-(4-(trifluoromethyl)phenyl)naphthalen-1-yl)phenyl)piperidin-1-yl)butyl)-1H-1,2,3-triazol-1-yl)hexyl)carbamoyl)phenyl)-3-iminio-5-sulfo-3H-xanthene-4-sulfonate incubated for 30 mins by BD FACSCalibur flow …; assay type: cell-based
T3 sequence (Q9ESG6 whole entry): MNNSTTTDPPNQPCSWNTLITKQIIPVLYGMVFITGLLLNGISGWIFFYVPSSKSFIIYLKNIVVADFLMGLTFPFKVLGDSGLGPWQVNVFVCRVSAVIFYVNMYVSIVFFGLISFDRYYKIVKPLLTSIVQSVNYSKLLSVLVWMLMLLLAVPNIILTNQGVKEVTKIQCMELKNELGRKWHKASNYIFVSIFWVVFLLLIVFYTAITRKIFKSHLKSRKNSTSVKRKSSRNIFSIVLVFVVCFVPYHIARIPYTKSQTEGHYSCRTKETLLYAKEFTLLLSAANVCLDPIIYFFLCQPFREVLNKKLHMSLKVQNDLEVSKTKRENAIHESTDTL

[9] = target: Sigma intracellular receptor 2 (Homo sapiens, UniProt Q5BJF2); assay: Inhibition of sigma 2 receptor (unknown origin) assessed as binding constant
[10] = target: D(3) dopamine receptor (Homo sapiens, UniProt P35462); assay: Inhibition of dopamine D3 receptor (unknown origin) assessed as binding constant
[11] = target: Beta-3 adrenergic receptor (Homo sapiens, UniProt P13945); assay: Inhibition of adrenergic beta 3 receptor (unknown origin) assessed as binding constant
[12] = target: D(1B) dopamine receptor (Homo sapiens, UniProt P21918); assay: Inhibition of dopamine D5 receptor (unknown origin) assessed as binding constant
Sequence of D(1B) dopamine receptor (P21918 whole entry): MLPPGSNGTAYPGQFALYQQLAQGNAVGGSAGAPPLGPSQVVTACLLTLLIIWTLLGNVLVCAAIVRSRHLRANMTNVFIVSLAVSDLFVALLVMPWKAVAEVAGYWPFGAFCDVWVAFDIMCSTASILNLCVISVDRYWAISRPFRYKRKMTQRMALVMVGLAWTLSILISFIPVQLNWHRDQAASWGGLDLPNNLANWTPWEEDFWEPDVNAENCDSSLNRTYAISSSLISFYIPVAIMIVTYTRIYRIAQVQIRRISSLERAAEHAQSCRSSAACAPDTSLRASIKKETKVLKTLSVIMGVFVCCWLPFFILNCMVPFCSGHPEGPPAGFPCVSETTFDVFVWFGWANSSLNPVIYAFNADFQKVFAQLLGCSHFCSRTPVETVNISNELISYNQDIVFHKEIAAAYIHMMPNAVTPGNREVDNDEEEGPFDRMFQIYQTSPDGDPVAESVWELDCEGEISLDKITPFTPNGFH

Sequence of Beta-3 adrenergic receptor (P13945 whole entry): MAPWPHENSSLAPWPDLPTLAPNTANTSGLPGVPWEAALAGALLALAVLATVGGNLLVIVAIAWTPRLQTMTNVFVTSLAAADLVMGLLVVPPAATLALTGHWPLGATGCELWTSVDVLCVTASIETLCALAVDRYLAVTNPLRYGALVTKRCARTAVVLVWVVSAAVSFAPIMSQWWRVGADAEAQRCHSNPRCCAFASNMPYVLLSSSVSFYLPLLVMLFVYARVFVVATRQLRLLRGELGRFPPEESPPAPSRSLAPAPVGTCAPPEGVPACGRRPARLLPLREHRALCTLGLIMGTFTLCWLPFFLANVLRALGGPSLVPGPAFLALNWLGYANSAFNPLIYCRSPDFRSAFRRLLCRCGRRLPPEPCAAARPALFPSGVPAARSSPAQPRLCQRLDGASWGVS
Sequence of Sigma intracellular receptor 2 (Q5BJF2 whole entry): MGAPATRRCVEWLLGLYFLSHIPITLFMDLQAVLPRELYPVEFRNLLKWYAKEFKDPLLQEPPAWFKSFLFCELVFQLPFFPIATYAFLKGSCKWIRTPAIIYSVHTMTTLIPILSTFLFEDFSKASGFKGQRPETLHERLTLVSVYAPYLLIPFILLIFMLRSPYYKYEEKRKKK
Sequence of Sigma non-opioid intracellular receptor 1 (Q99720 whole entry): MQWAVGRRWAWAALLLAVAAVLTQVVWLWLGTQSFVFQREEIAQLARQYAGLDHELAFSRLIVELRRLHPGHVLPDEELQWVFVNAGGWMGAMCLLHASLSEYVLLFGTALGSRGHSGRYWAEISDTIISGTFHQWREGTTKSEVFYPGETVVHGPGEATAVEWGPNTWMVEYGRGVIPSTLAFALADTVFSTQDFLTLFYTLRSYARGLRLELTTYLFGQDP
Sequence of D(3) dopamine receptor (P35462 whole entry): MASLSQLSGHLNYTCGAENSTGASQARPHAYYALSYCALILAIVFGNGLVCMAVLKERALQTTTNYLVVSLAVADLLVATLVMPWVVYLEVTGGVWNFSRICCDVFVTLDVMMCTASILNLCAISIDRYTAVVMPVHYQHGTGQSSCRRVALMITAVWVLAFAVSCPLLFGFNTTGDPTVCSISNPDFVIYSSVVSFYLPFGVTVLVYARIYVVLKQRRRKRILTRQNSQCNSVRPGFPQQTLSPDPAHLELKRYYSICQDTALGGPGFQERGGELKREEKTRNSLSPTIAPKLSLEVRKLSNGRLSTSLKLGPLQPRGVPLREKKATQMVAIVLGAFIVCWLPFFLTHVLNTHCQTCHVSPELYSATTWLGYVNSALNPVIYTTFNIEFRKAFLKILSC
Sequence of Translocator protein (P30536 whole entry): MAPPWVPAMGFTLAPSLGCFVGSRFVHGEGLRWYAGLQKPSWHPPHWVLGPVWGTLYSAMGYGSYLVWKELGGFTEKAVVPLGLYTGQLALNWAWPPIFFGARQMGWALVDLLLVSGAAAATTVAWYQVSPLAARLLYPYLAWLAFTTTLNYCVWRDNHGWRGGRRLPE

Molecule `N[C@H]1C[C@@H](C(=O)O)C[C@@H]1c1ccc(-c2cc(C(=O)O)cc3cc(-c4ccc(C(F)(F)F)cc4)ccc23)cc1` has an IC50 [1] of 269 nM.

`CN(C)C(=O)COC(=O)c1cc(-c2ccc([C@@H]3C[C@@H]4C[C@H]3C(=O)N4)cc2)c2ccc(-c3ccc(C(F)(F)F)cc3)cc2c1` showed a half-life [2] of over 72 h.

Molecule `O=C(O)c1cc(-c2ccc(C3CC4CCC(C3)N4)cc2)c2ccc(-c3ccc(C(F)(F)F)cc3)cc2c1` (stereo not given) has a solubility ([3]; buffer) of 0.38 µg/mL (≈ 0.758 µM), a logD [4] of 2.3 and an IC50 [1] of 38.3 nM. The solubility [5] was 0.13 µg/mL (≈ 0.259 µM).

Work on `O=C(O)c1cc(-c2ccc([C@@]3(O)C[C@H]4CC[C@@H]3CN4)cc2)c2ccc(-c3ccc(C(F)(F)F)cc3)cc2c1` (racemic) yielded a logD [4] of 0.96 and an IC50 [1] of 15.6 nM.

Work on `O=C(O)c1cc(-c2ccc(C3(O)[C@H]4CC[C@H]3CN(Cc3ccccc3)C4)cc2)c2ccc(-c3ccc(C(F)(F)F)cc3)cc2c1` (stereo not given in full) yielded a solubility ([3]; buffer) of 0.48 µg/mL (≈ 0.79 µM), a logD [4] of 3.3 and a solubility [5] of 0.14 µg/mL (≈ 0.23 µM).

`N[C@@H]1C[C@H](CO)C[C@H]1c1ccc(-c2cc(C(=O)O)cc3cc(-c4ccc(C(F)(F)F)cc4)ccc23)cc1` showed a logD [4] of 1.1.

Work on `O=C(O)c1cc(-c2ccc([C@@H]3C[C@@H]4C[C@H]3CN4)cc2)c2ccc(-c3ccc(C(F)(F)F)cc3)cc2c1` yielded a Ki [6] of 2100 nM, a Ki [7] of 1800 nM and an IC50 [8] of 13.4 nM. For the same molecule, the Ki [9] was 1200 nM, the Ki [10] was 1000 nM and the Ki [11] was over 1000 nM. The Ki [12] was over 1000 nM.

In the case of `CC(=O)N1C[C@@H]2C[C@H]1C[C@H]2c1ccc(-c2cc(C(=O)OCC(=O)N(C)C)cc3cc(-c4ccc(C(F)(F)F)cc4)ccc23)cc1`, the half-life [2] is reported as over 72 h.

Molecule `O=C(O)c1cc(-c2ccc(C3CC4CCC3CN4)cc2)c2ccc(-c3ccc(C(F)(F)F)cc3)cc2c1` (stereo not given) has a logD [4] of 1.7 and an IC50 [1] of 25.1 nM.

`N[C@@H]1C[C@H](CO)[C@@H](c2ccc(-c3cc(C(=O)O)cc4cc(-c5ccc(C(F)(F)F)cc5)ccc34)cc2)C1` gave a Ki [9] of 1000 nM.

Molecule `O=C(O)c1cc(-c2ccc(C3[C@H]4CC[C@H]3CNC4)cc2)c2ccc(-c3ccc(C(F)(F)F)cc3)cc2c1` (stereo not given in full) has a solubility ([3]; buffer) of 0.32 µg/mL (≈ 0.638 µM), a logD [4] of 3 and an IC50 [1] of 696 nM. For the same molecule, the solubility [5] was 0.16 µg/mL (≈ 0.319 µM).

In the case of `O=C(O)c1cc(-c2ccc([C@@]3(O)C[C@H]4CC[C@@H](C3)N4)cc2)c2ccc(-c3ccc(C(F)(F)F)cc3)cc2c1`, the logD [4] is reported as 1.2.

Molecule `O=C(O)c1cc(-c2ccc([C@@H]3C[C@@H]4C[C@H]3C(=O)N4)cc2)c2ccc(-c3ccc(C(F)(F)F)cc3)cc2c1` has a logD [4] of 0.49, a Ki [6] of 3200 nM and a Ki [9] of 1900 nM. The Ki [11] was over 1000 nM.

In the case of `N[C@H]1C[C@@H](CO)[C@H](c2ccc(-c3cc(C(=O)O)cc4cc(-c5ccc(C(F)(F)F)cc5)ccc34)cc2)C1`, the logD [4] is reported as 0.96, the Ki [6] is reported as 1300 nM and the Ki [7] is reported as 1800 nM. For the same molecule, the Ki [9] was 1100 nM, the Ki [10] was 330 nM and the Ki [11] was over 1000 nM.

Work on `N[C@@H]1C[C@H](C(=O)O)[C@@H](c2ccc(-c3cc(C(=O)O)cc4cc(-c5ccc(C(F)(F)F)cc5)ccc34)cc2)C1` yielded a Ki [9] of 2000 nM.

With `O=C(O)c1cc(-c2ccc([C@H]3CCN[C@@H]4C[C@H]34)cc2)c2ccc(-c3ccc(C(F)(F)F)cc3)cc2c1` (relative stereo) the solubility ([3]; aqueous medium) was 0.1 µg/mL (≈ 0.205 µM), the logD [4] was 2.6 and the solubility [5] was 0.51 µg/mL (≈ 1.05 µM).

`N[C@@H]1C[C@H](C(=O)O)C[C@H]1c1ccc(-c2cc(C(=O)O)cc3cc(-c4ccc(C(F)(F)F)cc4)ccc23)cc1` showed a logD [4] of -0.48.

`O=C(O)c1cc(-c2ccc(C3(O)[C@H]4CC[C@H]3CNC4)cc2)c2ccc(-c3ccc(C(F)(F)F)cc3)cc2c1` (stereo not given in full) gave a solubility ([3]; buffer) of 2.32 µg/mL (≈ 4.48 µM), a logD [4] of 1.2 and an IC50 [1] of 21.3 nM. The Ki [6] was 1700 nM, the IC50 [8] was 15.5 nM and the Ki [9] was 1700 nM. The solubility [5] was 0.54 µg/mL (≈ 1.04 µM).
